Results published in ChEMBL document CHEMBL3044753, “Polyamines May Modulate Both G Protein-Coupled Receptors and G Proteins” (Med Chem Res, 2004).
Active and inactive are the calls of the source. The rule behind the calls is not given here.

Legend:
Right cardiac atrium [1] = assay: Negative ionotropic activity in electrically-paced Cavia porcellus (guinea pig) right atrium measured immediately by isometric transducer analysis in presence of thioperamide; assay type: functional, tissue-based
Left cardiac atrium [2] = assay: Negative ionotropic activity in electrically-paced Cavia porcellus (guinea pig) left atrium measured immediately by isometric transducer analysis in absence of benzalkonium/prazosin; assay type: functional, tissue-based
Left cardiac atrium [3] = assay: Negative ionotropic activity in electrically-paced Cavia porcellus (guinea pig) left atrium measured after 60 min by isometric transducer analysis in presence of thioperamide; assay type: functional, tissue-based
Right cardiac atrium [4] = assay: Negative ionotropic activity in electrically-paced Cavia porcellus (guinea pig) right atrium measured after 60 min by isometric transducer analysis in presence of pimozide; assay type: functional, tissue-based
Right cardiac atrium [5] = assay: Negative ionotropic activity in electrically-paced Cavia porcellus (guinea pig) right atrium measured immediately by isometric transducer analysis in presence of methoctramine; assay type: functional, tissue-based
Left cardiac atrium [6] = assay: Negative ionotropic activity in electrically-paced Cavia porcellus (guinea pig) left atrium measured after 60 min by isometric transducer analysis in presence of bupranolol; assay type: functional, tissue-based
Right cardiac atrium [7] = assay: Negative […] activity in electrically-paced Cavia porcellus (guinea pig) right atrium assessed as effect on rate measured immediately by isometric transducer analysis in absence of benzalkonium/prazosin relative to arecaidine propargyl ester; assay type: functional
Left cardiac atrium [8] = assay: Negative ionotropic activity in electrically-paced Cavia porcellus (guinea pig) left atrium measured after 60 min by isometric transducer analysis in presence of prazosin; assay type: functional, tissue-based
Left cardiac atrium [9] = assay: Negative ionotropic activity in electrically-paced Cavia porcellus (guinea pig) left atrium measured immediately by isometric transducer analysis in presence of DPCPX; assay type: functional, tissue-based
Left cardiac atrium [10] = assay: Negative […] activity in electrically-paced Cavia porcellus (guinea pig) left atrium measured immediately by isometric transducer analysis in presence of atropine; assay type: functional, tissue-based
Left cardiac atrium [11] = assay: Negative ionotropic activity in electrically-paced Cavia porcellus (guinea pig) left atrium measured after 60 min by isometric transducer analysis in presence of pimozide; assay type: functional, tissue-based
Left cardiac atrium [12] = assay: Reversible negative ionotropic activity in electrically-paced Cavia porcellus (guinea pig) left atrium incubated for 30 min followed by compound-washout measured after 3 hr by isometric transducer analysis; assay type: functional, tissue-based
Right cardiac atrium [13] = assay: Negative ionotropic activity in electrically-paced Cavia porcellus (guinea pig) right atrium measured after 60 min by isometric transducer analysis in presence of benextramine; assay type: functional, tissue-based
Left cardiac atrium [14] = assay: Negative ionotropic activity in electrically-paced Cavia porcellus (guinea pig) left atrium measured immediately by isometric transducer analysis in presence of AM 251; assay type: functional, tissue-based
Left cardiac atrium [15] = assay: Negative ionotropic activity in electrically-paced Cavia porcellus (guinea pig) left atrium measured after 60 min by isometric transducer analysis in presence of benextramine; assay type: functional, tissue-based
Left cardiac atrium [16] = assay: Negative ionotropic activity in electrically-paced Cavia porcellus (guinea pig) left atrium measured immediately by isometric transducer analysis in presence of AM 630; assay type: functional, tissue-based
Right cardiac atrium [17] = assay: Negative […] activity in electrically-paced Cavia porcellus (guinea pig) right atrium assessed as effect on rate measured immediately by isometric transducer analysis in presence of benzalkonium/prazosin; assay type: functional, tissue-based
Right cardiac atrium [18] = assay: Negative […] activity in electrically-paced Cavia porcellus (guinea pig) right atrium measured immediately by isometric transducer analysis in presence of atropine; assay type: functional, tissue-based
Right cardiac atrium [19] = assay: Negative […] activity in electrically-paced Cavia porcellus (guinea pig) right atrium measured immediately by isometric transducer analysis in presence of ANR 83; assay type: functional, tissue-based
Right cardiac atrium [20] = assay: Negative ionotropic activity in electrically-paced Cavia porcellus (guinea pig) right atrium measured immediately by isometric transducer analysis in presence of pimozide; assay type: functional, tissue-based
Right cardiac atrium [21] = assay: Negative ionotropic activity in electrically-paced Cavia porcellus (guinea pig) right atrium measured immediately by isometric transducer analysis in presence of prazosin; assay type: functional, tissue-based
Right cardiac atrium [22] = assay: Negative ionotropic activity in electrically-paced Cavia porcellus (guinea pig) right atrium measured after 60 min by isometric transducer analysis in presence of naloxane; assay type: functional, tissue-based
Right cardiac atrium [23] = assay: Negative […] activity in electrically-paced Cavia porcellus (guinea pig) right atrium measured immediately by isometric transducer analysis in presence of […]; assay type: functional, tissue-based
Left cardiac atrium [24] = assay: Negative […] activity in electrically-paced Cavia porcellus (guinea pig) left atrium measured immediately by isometric transducer analysis in presence of dihydroergocristine; assay type: functional, tissue-based
Left cardiac atrium [25] = assay: Negative ionotropic activity in electrically-paced Cavia porcellus (guinea pig) left atrium measured after 60 min by isometric transducer analysis in presence of benextramine/4-DAMP mustard relative to N-dodecyl lysine amide; assay type: functional
Left cardiac atrium [26] = assay: Negative ionotropic activity in electrically-paced Cavia porcellus (guinea pig) left atrium measured after 60 min by isometric transducer analysis in presence of naloxane; assay type: functional, tissue-based
Right cardiac atrium [27] = assay: Negative […] activity in electrically-paced Cavia porcellus (guinea pig) right atrium measured immediately by isometric transducer analysis in presence of benzalkonium; assay type: functional, tissue-based
Right cardiac atrium [28] = assay: Negative ionotropic activity in electrically-paced Cavia porcellus (guinea pig) right atrium measured after 60 min by isometric transducer analysis in presence of benzalkonium; assay type: functional, tissue-based
Left cardiac atrium [29] = assay: Negative […] activity in electrically-paced Cavia porcellus (guinea pig) left atrium measured immediately by isometric transducer analysis in presence of benzalkonium/prazosin; assay type: functional, tissue-based
Left cardiac atrium [30] = assay: Negative ionotropic activity in electrically-paced Cavia porcellus (guinea pig) left atrium measured immediately by isometric transducer analysis in presence of ANR 83; assay type: functional, tissue-based
Left cardiac atrium [31] = assay: Negative ionotropic activity in electrically-paced Cavia porcellus (guinea pig) left atrium measured immediately by isometric transducer analysis in absence of benzalkonium/prazosin relative to arecaidine propargyl ester; assay type: functional
Right cardiac atrium [32] = assay: Negative ionotropic activity in electrically-paced Cavia porcellus (guinea pig) right atrium measured immediately by isometric transducer analysis in presence of bupranolol; assay type: functional, tissue-based
Right cardiac atrium [33] = assay: Negative ionotropic activity in electrically-paced Cavia porcellus (guinea pig) right atrium assessed as effect on force measured immediately by isometric transducer analysis in absence of benzalkonium/prazosin relative to arecaidine propargyl ester; assay type: functional
Right cardiac atrium [34] = assay: Negative ionotropic activity in electrically-paced Cavia porcellus (guinea pig) right atrium measured after 60 min by isometric transducer analysis in presence of bupranolol; assay type: functional, tissue-based
Left cardiac atrium [35] = assay: Negative […] activity in electrically-paced Cavia porcellus (guinea pig) left atrium measured immediately by isometric transducer analysis in presence of benzalkonium; assay type: functional, tissue-based
Left cardiac atrium [36] = assay: Negative […] activity in electrically-paced Cavia porcellus (guinea pig) left atrium measured immediately by isometric transducer analysis in presence of pimozide; assay type: functional, tissue-based
Left cardiac atrium [37] = assay: Negative […] activity in electrically-paced Cavia porcellus (guinea pig) left atrium measured immediately by isometric transducer analysis in presence of benextramine; assay type: functional, tissue-based
Left cardiac atrium [38] = assay: Negative […] activity in electrically-paced Cavia porcellus (guinea pig) left atrium measured immediately by isometric transducer analysis in presence of thioperamide; assay type: functional, tissue-based
Left cardiac atrium [39] = assay: Negative ionotropic activity in electrically-paced Cavia porcellus (guinea pig) left atrium measured immediately by isometric transducer analysis in presence of 4-DAMP mustard; assay type: functional, tissue-based
Left cardiac atrium [40] = assay: Reversible negative ionotropic activity in electrically-paced Cavia porcellus (guinea pig) left atrium incubated for few seconds followed by compound washout measured after 3 hr by isometric transducer analysis in absence of benzalkonium/prazosin; assay type: functional, tissue-based
Right cardiac atrium [41] = assay: Negative […] activity in electrically-paced Cavia porcellus (guinea pig) right atrium measured immediately by isometric transducer analysis in presence of benextramine; assay type: functional, tissue-based
Right cardiac atrium [42] = assay: Negative […] activity in electrically-paced Cavia porcellus (guinea pig) right atrium measured immediately by isometric transducer analysis in presence of AM 630; assay type: functional, tissue-based
Right cardiac atrium [43] = assay: Negative […] activity in electrically-paced Cavia porcellus (guinea pig) right atrium measured immediately by isometric transducer analysis in presence of DPCPX; assay type: functional, tissue-based

COc1ccccc1CN1CCC(C2CCN(C(=O)CCCCCCC(=O)N3CCC(C4CCN(Cc5ccccc5OC)CC4)CC3)CC2)CC1 [PIPERTRAMINE AMIDE]
Activity (Right cardiac atrium [1]): Active | EC50 (Left cardiac atrium [2]): 0.0316 nM | Activity (Left cardiac atrium [3]): Active | Activity (Right cardiac atrium [4]): Active | Activity (Right cardiac atrium [5]): inactive | Activity (Left cardiac atrium [6]): Active | Efficacy (Right cardiac atrium [7]): 37% | Activity (Left cardiac atrium [8]): Active | Activity (Left cardiac atrium [9]): Active | Activity (Left cardiac atrium [10]): inactive | Activity (Left cardiac atrium [11]): Active | Activity (Left cardiac atrium [12]): inactive | Activity (Right cardiac atrium [13]): Active | Activity (Left cardiac atrium [14]): Active | Activity (Left cardiac atrium [15]): Active | Activity (Left cardiac atrium [16]): Active | EC50 (Right cardiac atrium [17]): 1.51 nM | Activity (Right cardiac atrium [18]): inactive | Activity (Right cardiac atrium [19]): Active | Activity (Right cardiac atrium [20]): Active | Activity (Right cardiac atrium [21]): Active | Activity (Right cardiac atrium [22]): Active | Activity (Right cardiac atrium [23]): Active | Activity (Left cardiac atrium [24]): Active | Efficacy (Left cardiac atrium [25]): 85% | Activity (Left cardiac atrium [26]): Active | Activity (Right cardiac atrium [27]): Active | Activity (Right cardiac atrium [28]): inactive | EC50 (Left cardiac atrium [29]): 0.0417 nM | Activity (Left cardiac atrium [30]): Active | Efficacy (Left cardiac atrium [31]): 58% | Activity (Right cardiac atrium [32]): Active | Efficacy (Right cardiac atrium [33]): 79% | Activity (Right cardiac atrium [34]): Active | Activity (Left cardiac atrium [35]): Active | Activity (Left cardiac atrium [36]): Active | Activity (Left cardiac atrium [37]): Active | Activity (Left cardiac atrium [38]): Active | Activity (Left cardiac atrium [39]): inactive | Activity (Left cardiac atrium [40]): Active | Activity (Right cardiac atrium [41]): Active | Activity (Right cardiac atrium [42]): Active | Activity (Right cardiac atrium [43]): Active

COc1ccccc1CN1CCC(C2CCN(CCCCCCCCN3CCC(C4CCN(Cc5ccccc5OC)CC4)CC3)CC2)CC1 [PIPERTRAMINE]
Activity (Left cardiac atrium [3]): Active | Activity (Right cardiac atrium [4]): Active | Activity (Left cardiac atrium [6]): Active | Activity (Left cardiac atrium [8]): Active | Activity (Left cardiac atrium [11]): Active | Activity (Left cardiac atrium [12]): inactive | Activity (Right cardiac atrium [13]): Active | Activity (Left cardiac atrium [15]): Active | Activity (Right cardiac atrium [22]): Active | Efficacy (Left cardiac atrium [25]): 96% | Activity (Left cardiac atrium [26]): Active | Activity (Right cardiac atrium [28]): inactive | Activity (Right cardiac atrium [34]): Active
